We go through three molecules from ChEMBL document CHEMBL1131781, “Design and synthesis of diaminopyrrolidinone inhibitors of human osteoclast cathepsin K” (Bioorg Med Chem Lett, 1999).

The target of this test is T1, Cathepsin K (Homo sapiens, UniProt P43235).
T1 sequence (P43235 whole entry): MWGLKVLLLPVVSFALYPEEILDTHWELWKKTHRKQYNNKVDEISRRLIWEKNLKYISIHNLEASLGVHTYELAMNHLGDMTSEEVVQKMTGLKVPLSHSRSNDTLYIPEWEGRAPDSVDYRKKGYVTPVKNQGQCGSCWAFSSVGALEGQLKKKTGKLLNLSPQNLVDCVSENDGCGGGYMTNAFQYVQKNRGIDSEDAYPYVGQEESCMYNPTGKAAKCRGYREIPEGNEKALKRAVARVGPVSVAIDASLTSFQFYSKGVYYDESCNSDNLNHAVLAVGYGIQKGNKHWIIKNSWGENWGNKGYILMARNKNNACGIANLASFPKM
Briefly: Compound was tested for its inhibitory activity against human osteoclast cathepsin K.
What is called Ki is the dissociation constant of the complex between target and ligand, obtained from inhibition or displacement. The low end stands for higher affinity, the high end for lower affinity. Consider `CC(C)C[C@H](NC(=O)OCc1ccccc1)c1nc(C(=O)NN2CC[C@@](CC(C)C)(NC(=O)OCc3ccccc3)C2=O)cs1`, for which the Ki amounted to 33 nM. This lies in the double-digit nanomolar range. `CC(C)C[C@H](NC(=O)OCc1ccccc1)c1nc(C(=O)NN2CC[C@@H](NC(=O)OCc3ccccc3)C2=O)cs1` returned a Ki of 330 nM. The same measure for `CC(C)C[C@H](NC(=O)OCc1ccccc1)C(=O)NNC(=O)c1csc([C@H](CC(C)C)NC(=O)OCc2ccccc2)n1`: 10 nM.
